Target: T1, human zDHHC7 (Homo sapiens, UniProt Q9NXF8)
T1 construct: expressed in transfected cells; host or cells: HEK293T
T1 sequence (Q9NXF8 1-308): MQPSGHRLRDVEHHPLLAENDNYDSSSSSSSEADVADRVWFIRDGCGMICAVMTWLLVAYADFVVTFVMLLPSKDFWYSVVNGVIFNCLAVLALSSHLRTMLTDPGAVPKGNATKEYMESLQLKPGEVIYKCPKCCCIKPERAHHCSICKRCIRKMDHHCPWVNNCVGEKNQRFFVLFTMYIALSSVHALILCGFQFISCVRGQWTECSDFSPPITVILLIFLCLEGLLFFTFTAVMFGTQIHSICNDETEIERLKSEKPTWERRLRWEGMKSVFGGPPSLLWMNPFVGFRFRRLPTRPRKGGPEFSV
Assay: PSD95-mCHERRY S-acylation in HEK293T cells co-expressing zDHHC7
Format: cell-based
Conditions: 25 μM
Source text: PSD95 (postsynaptic density protein 95) is a major S-acylated protein that has a critical role in the maturation of excitatory neurons and in synaptic plasticity ([46], [47]). PSD95 can be S-acylated by zDHHC2, zDHHC3, zDHHC7, and zDHHC15 ([6]). […] We therefore tested the effects of TTZ-1 and TTZ-2 on the S-acylation of PSD95 mediated by zDHHC2, zDHHC3, zDHHC7, and zDHHC15. […] In contrast, zDHHC3 and zDHHC7 activities toward PSD95 were unaffected by TTZ-1 and TTZ-2, mirroring the data obtained with GFP-SNAP25 as a substrate.
Figure 9 Activity of TTZ-1 and TTZ-2 against PSD95 S-acylation mediated by human zDHHC2, zDHHC3, zDHHC7, and zDHHC15 expressed in mammalian cells. HEK293T cells were transfected with a plasmid encoding PSD95-mCHERRY together with either a control plasmid pEF-BOS-HA (pEF) or a plasmid encoding either HA-tagged human zDHHC2 (zD2), zDHHC3 (zD3), zDHHC7 (zD7), or zDHHC15 (zD15) for 24 h. Cells were then preincubated for 4 h with TTZ-1 or TTZ-2 (25 μM final) or DMSO control before metabolic labeling with 100 μM C16:0-azide for 4 h. Cells were lysed, and proteins having incorporated C16:0-azide were labeled by click chemistry with an alkyne-IR800 dye. […] The data were quantified, and the graphs below each set of membranes show mean ± SEM of normalized S-acylation of PSD95-mCHERRY (click signal/RFP signal). […]

| SMILES | PSD95-mCHERRY S-acylation by zDHHC7 |
| --- | --- |
| O=C(Nc1cccc2c1OC(c1nnn[nH]1)CN2)c1ccc(OCCCCc2ccccc2)cc1 (centres unmarked) [TTZ-2, N-(2-(1H-Tetrazol-5-yl)-3,4-dihydro-2H-benzo[b][1,4]oxazin-8-yl)-4-(4-phenylbutoxy)benzamide] | unaffected |
| CCCCCCCOc1ccc(C(=O)Nc2cccc3c2OC(c2nnn[nH]2)CN3)cc1 (centres unmarked) [TTZ-1, N-(2-(1H-Tetrazol-5-yl)-3,4-dihydro-2H-benzo[b][1,4]oxazin-8-yl)-4-(heptyloxy)benzamide] | unaffected |
